Experimental data as given in patent US20090214529A9, “KINESIN INHIBITORS” (TaiGen Biotechnology Co., Ltd., priority 2007, published 2009).

System: tumor cell
Experiment: Cytotoxicity assay (MTS)
Format: cell-based
Settings: 72 h; incubation for three days; read-out: IC50, tumor cell growth inhibition (MTS)
Protocol: The efficacy of a test compound in inhibiting tumor cell growth was analyzed using a MTS assay. The MTS assay is a calorimetric method for the determination of viable cells in proliferation by using a tetrazolium compound (3-(4,5-dimethylthiazol-2-yl)-5-(3-[…])-2-(4-sulfophenyl)-2H-tetrazolium, inner salt; MTS) and an electron-coupling agent (phenazine methosulfate; PMS). The MTS reagent is converted by dehydrogenase enzymes in metabolically active cells into a formazan that is soluble in a tissue culture medium.
In this assay, tumor cell suspensions (30 μl/well) were seeded into 384-well flat-bottomed tissue culture plates at an appropriate density overnight. A fresh medium (3 μl/well) containing varying concentrations of a test compound or vehicle was added to the culture followed by incubation for three days. At the end of the incubation, all plates were processed simultaneously as follows: The culture medium was aspirated, a MTS cell proliferation assay (Promega) solution (30 μl/well) was added, and the plates were incubated at 37° C. for about 2 hours. Absorbance (a parameter proportional to the cell mass) was measured at 490 nm using a Multiskan (Thermo Electron Corporation, Waltham, Mass.). Inhibition effects were expressed as corrected T/C values for each test compound according to the following equation:
T/C=(T−Blank)/(C−Blank)×100(%),
where T is the mean absorbance of the treated cells, C is the mean absorbance of the controls, and Blank is the mean absorbance of the cell free well.

| Structure (SMILES) | IC50 [µM] |
| --- | --- |
| Cc1ccc(C(=O)N(CCN)C(c2nc3c(oc4ccc(F)cc43)c(=O)n2Cc2ccsc2)C(C)C)cc1 (stereo not drawn) [Compound 75] | < 30 |
| Cc1ccc(C(=O)N(CCCN)C(c2nc3c(oc4ccc(F)cc43)c(=O)n2Cc2ccsc2)C(C)C)cc1 (stereo not drawn) [Compound 76] | < 30 |
| Cc1ccc(C(=O)N(CCN)C(c2nc3c(oc4ccc(Cl)cc43)c(=O)n2Cc2ccsc2)C(C)C)cc1 (stereo not drawn) [Compound 77] | < 30 |
| Cc1ccc(C(=O)N(CCCN)C(c2nc3c(oc4ccc(Cl)cc43)c(=O)n2Cc2ccsc2)C(C)C)cc1 (stereo not drawn) [Compound 78] | < 30 |
| Cc1ccc(C(=O)N(CCN)C(c2nc3c(oc4ccc(F)cc43)c(=O)n2Cc2cccc(F)c2)C(C)C)cc1 (stereo not drawn) [Compound 79] | < 30 |
| Cc1ccc(C(=O)N(CCCN)C(c2nc3c(oc4ccc(F)cc43)c(=O)n2Cc2cccc(F)c2)C(C)C)cc1 (stereo not drawn) [Compound 80] | < 30 |
| Cc1ccc(C(=O)N(CCCN)C(c2nc3c(oc4ccc(F)cc43)c(=O)n2Cc2ccc(Br)o2)C(C)C)cc1 (stereo not drawn) [Compound 82] | < 30 |
| Cc1ccc(C(=O)N(CCCN)C(c2nc3c(oc4ccc(F)cc43)c(=O)n2Cc2cc(C)cs2)C(C)C)cc1 (stereo not drawn) [Compound 85] | < 30 |
| Cc1ccc(C(=O)N(CCCN)C(c2nc3c(oc4ccc(F)cc43)c(=O)n2Cc2ccc(C(F)(F)F)o2)C(C)C)cc1 (stereo not drawn) [Compound 87] | < 30 |
| COC(=O)c1ccc(Cn2c(C(C(C)C)N(CCN)C(=O)c3ccc(C)cc3)nc3c(oc4ccc(F)cc43)c2=O)s1 (stereo not drawn) [Compound 88] | < 30 |
| COC(=O)c1ccc(Cn2c(C(C(C)C)N(CCCN)C(=O)c3ccc(C)cc3)nc3c(oc4ccc(F)cc43)c2=O)s1 (stereo not drawn) [Compound 89] | < 30 |
| Cc1ccc(C(=O)N(CCN)C(c2nc3c(oc4ccc(F)cc43)c(=O)n2Cc2ccc(Cl)o2)C(C)C)cc1 (stereo not drawn) [Compound 90] | < 30 |
| Cc1ccc(C(=O)N(CCCN)C(c2nc3c(oc4ccc(F)cc43)c(=O)n2Cc2ccc(Cl)o2)C(C)C)cc1 (stereo not drawn) [Compound 91] | < 30 |
| Cc1ccc(C(=O)N(CCN)C(c2nc3c(oc4ccc(F)cc43)c(=O)n2Cc2cc(Br)co2)C(C)C)cc1 (stereo not drawn) [Compound 92] | < 30 |
| Cc1ccc(C(=O)N(CCCN)C(c2nc3c(oc4ccc(F)cc43)c(=O)n2Cc2cc(Br)co2)C(C)C)cc1 (stereo not drawn) [Compound 93] | < 30 |
| Cc1ccc(C(=O)N(CCN)C(c2nc3c(oc4ccc(Cl)cc43)c(=O)n2Cc2cc(C)cs2)C(C)C)cc1 (stereo not drawn) [Compound 94] | < 30 |
| Cc1ccc(C(=O)N(CCCN)C(c2nc3c(oc4ccc(Cl)cc43)c(=O)n2Cc2cc(C)cs2)C(C)C)cc1 (stereo not drawn) [Compound 95] | < 30 |
| Cc1ccc(C(=O)N(CCN)C(c2nc3c(oc4ccc(Cl)cc43)c(=O)n2Cc2cccc(F)c2)C(C)C)cc1 (stereo not drawn) [Compound 96] | < 30 |
| Cc1ccc(C(=O)N(CCCN)C(c2nc3c(oc4ccc(Cl)cc43)c(=O)n2Cc2cccc(F)c2)C(C)C)cc1 (stereo not drawn) [Compound 97] | < 30 |
| Cc1ccc(C(=O)N(CCN)C(c2nc3c(oc4ccc(F)cc43)c(=O)n2Cc2ccc(C(N)=O)s2)C(C)C)cc1 (stereo not drawn) [Compound 98] | < 30 |
| Cc1ccc(C(=O)N(CCN)C(c2nc3c(oc4ccc(Cl)cc43)c(=O)n2Cc2cc(Br)co2)C(C)C)cc1 (stereo not drawn) [Compound 99] | < 30 |
| Cc1ccc(C(=O)N(CCN)C(c2nc3c(oc4ccc(Cl)cc43)c(=O)n2Cc2ccc(Cl)o2)C(C)C)cc1 (stereo not drawn) [Compound 100] | < 30 |
| Cc1ccc(C(=O)N(CCN)C(c2nc3c(oc4ccc(Cl)cc43)c(=O)n2Cc2ccc(C(F)(F)F)o2)C(C)C)cc1 (stereo not drawn) [Compound 101] | < 30 |
| COC(=O)c1ccc(Cn2c(C(C(C)C)N(CCN)C(=O)c3ccc(C)cc3)nc3c(oc4ccc(F)cc43)c2=O)o1 (stereo not drawn) [Compound 102] | < 30 |

| Structure (SMILES) | IC50 [µM] |
| --- | --- |
| Cc1ccc(C(=O)N(CCN)C(c2nc3c(oc4ccc(Cl)cc43)c(=O)n2Cc2ccc(Br)o2)C(C)C)cc1 (stereo not drawn) [Compound 103] | < 30 |
| Cc1ccc(C(=O)N(CCN)C(c2nc3c(oc4ccc(F)cc43)c(=O)n2Cc2cccc(C)c2)C(C)C)cc1 (stereo not drawn) [Compound 104] | < 30 |
| Cc1ccc(C(=O)N(CCN)C(c2nc3c(oc4ccc(F)cc43)c(=O)n2Cc2ccccc2)C(C)C)cc1 (stereo not drawn) [Compound 105] | < 30 |
| Cc1ccc(C(=O)N(CCCN)C(c2nc3c(oc4cc(F)ccc43)c(=O)n2Cc2ccccc2)C(C)C)cc1 (stereo not drawn) [Compound 106] | < 30 |
| Cc1ccc(C(=O)N(CCN)C(c2nc3c(oc4cc(Cl)ccc43)c(=O)n2Cc2ccccc2)C(C)C)cc1 (stereo not drawn) [Compound 107] | < 30 |
| Cc1ccc(C(=O)N(CCCN)C(c2nc3c(oc4cc(Cl)ccc43)c(=O)n2Cc2ccccc2)C(C)C)cc1 (stereo not drawn) [Compound 108] | < 30 |
| Cc1ccc(C(=O)N(CCN)C(c2nc3c(oc4cc(F)ccc43)c(=O)n2Cc2cc(C)cs2)C(C)C)cc1 (stereo not drawn) [Compound 109] | < 30 |
| Cc1ccc(C(=O)N(CCN)C(c2nc3c(oc4cc(F)ccc43)c(=O)n2Cc2ccc(Cl)s2)C(C)C)cc1 (stereo not drawn) [Compound 110] | < 30 |
| Cc1ccc(C(=O)N(CCN)C(c2nc3c(oc4ccc(F)cc43)c(=O)n2Cc2ccc(C#N)o2)C(C)C)cc1 (stereo not drawn) [Compound 111] | < 30 |
| Cc1ccc(C(=O)N(CCN)C(c2nc3c(oc4ccc(F)cc43)c(=O)n2Cc2cc(C#N)cs2)C(C)C)cc1 (stereo not drawn) [Compound 112] | < 30 |
| Cc1ccc(C(=O)N(CCN)C(c2nc3c(oc4ccc(F)cc43)c(=O)n2Cc2ccc(C(N)=O)o2)C(C)C)cc1 (stereo not drawn) [Compound 113] | < 30 |
| Cc1ccc(C(=O)N(CCN)C(c2nc3c(oc4ccc(F)cc43)c(=O)n2Cc2ccc(C(=O)N(C)C)s2)C(C)C)cc1 (stereo not drawn) [Compound 115] | < 30 |
| CCNC(=O)c1ccc(Cn2c(C(C(C)C)N(CCN)C(=O)c3ccc(C)cc3)nc3c(oc4ccc(F)cc43)c2=O)s1 (stereo not drawn) [Compound 116] | < 30 |
| CCN(CC)C(=O)c1ccc(Cn2c(C(C(C)C)N(CCN)C(=O)c3ccc(C)cc3)nc3c(oc4ccc(F)cc43)c2=O)s1 (stereo not drawn) [Compound 117] | < 30 |
| CNC(=O)c1ccc(Cn2c(C(C(C)C)N(CCN)C(=O)c3ccc(C)cc3)nc3c(oc4ccc(F)cc43)c2=O)o1 (stereo not drawn) [Compound 118] | < 30 |
| Cc1ccc(C(=O)N(CCN)C(c2nc3c(oc4ccc(F)cc43)c(=O)n2Cc2ccc(C(=O)NC(C)C)o2)C(C)C)cc1 (stereo not drawn) [Compound 119] | < 30 |
| Cc1ccc(C(=O)N(CCN)C(c2nc3c(oc4ccc(F)cc43)c(=O)n2Cc2ccc(C(=O)NCC(F)F)s2)C(C)C)cc1 (stereo not drawn) [Compound 120] | < 30 |
| C#CCNC(=O)c1ccc(Cn2c(C(C(C)C)N(CCN)C(=O)c3ccc(C)cc3)nc3c(oc4ccc(F)cc43)c2=O)s1 (stereo not drawn) [Compound 121] | < 30 |
| Cc1ccc(C(=O)N(CCN)C(c2nc3c(oc4ccc(F)cc43)c(=O)n2Cc2cccc(Cl)c2)C(C)C)cc1 (stereo not drawn) [Compound 122] | < 30 |
| Cc1ccc(Cn2c(C(C(C)C)N(CCN)C(=O)c3ccc(C)cc3)nc3c(oc4ccc(F)cc43)c2=O)cc1 (stereo not drawn) [Compound 123] | < 30 |
| Cc1ccc(C(=O)N(CCN)C(c2nc3c(oc4ccc(F)cc43)c(=O)n2Cc2cccc(Br)c2)C(C)C)cc1 (stereo not drawn) [Compound 124] | < 30 |
| Cc1ccc(C(=O)N(CCN)C(c2nc3c(oc4ccc(Cl)cc43)c(=O)n2Cc2ccco2)C(C)C)cc1 (stereo not drawn) [Compound 125] | < 30 |
| Cc1ccc(C(=O)N(CCN)C(c2nc3c(oc4ccc(Cl)cc43)c(=O)n2Cc2ccoc2)C(C)C)cc1 (stereo not drawn) [Compound 126] | < 30 |
| Cc1ccc(C(=O)N(CCN)C(c2nc3c(oc4ccc(F)cc43)c(=O)n2Cc2ccco2)C(C)C)cc1 (stereo not drawn) [Compound 127] | < 30 |
